In series [1] the target is T1, Ectonucleotide pyrophosphatase/phosphodiesterase family member 3 (Homo sapiens) (UniProt O14638).
T1 sequence (whole entry): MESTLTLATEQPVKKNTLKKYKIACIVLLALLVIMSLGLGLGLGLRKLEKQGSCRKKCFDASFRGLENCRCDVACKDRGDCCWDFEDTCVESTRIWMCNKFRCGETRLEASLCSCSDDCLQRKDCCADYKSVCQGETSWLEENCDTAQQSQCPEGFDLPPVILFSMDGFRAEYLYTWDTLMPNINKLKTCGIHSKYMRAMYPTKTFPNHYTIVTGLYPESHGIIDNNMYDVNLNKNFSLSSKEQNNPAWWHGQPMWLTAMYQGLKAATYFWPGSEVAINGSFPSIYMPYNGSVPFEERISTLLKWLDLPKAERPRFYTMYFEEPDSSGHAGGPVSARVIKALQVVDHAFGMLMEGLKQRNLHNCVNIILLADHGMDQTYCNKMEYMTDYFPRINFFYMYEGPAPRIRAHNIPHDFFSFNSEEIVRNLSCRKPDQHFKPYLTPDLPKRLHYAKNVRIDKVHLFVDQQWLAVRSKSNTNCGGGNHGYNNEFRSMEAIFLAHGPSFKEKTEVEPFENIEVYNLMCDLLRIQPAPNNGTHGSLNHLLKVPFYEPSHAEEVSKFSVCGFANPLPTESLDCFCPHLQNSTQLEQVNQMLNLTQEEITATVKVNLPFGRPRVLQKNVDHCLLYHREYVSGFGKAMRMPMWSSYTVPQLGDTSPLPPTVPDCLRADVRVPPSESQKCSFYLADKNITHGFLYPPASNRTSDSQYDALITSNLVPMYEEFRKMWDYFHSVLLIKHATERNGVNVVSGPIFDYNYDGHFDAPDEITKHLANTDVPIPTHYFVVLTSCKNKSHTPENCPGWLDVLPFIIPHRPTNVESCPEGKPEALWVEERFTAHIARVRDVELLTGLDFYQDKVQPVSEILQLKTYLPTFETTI
The series is described as follows: Inhibition of human NPP3 expressed in COS7 cell membranes at 100 uM using pNP-TMP as substrate preincubated for 3 mins followed by substrate addition and measured after 15 mins.

Series [2] concerns the target P2Y purinoceptor 2 (Homo sapiens) (UniProt P41231). Put plainly: Agonist activity at human P2Y2 receptor expressed in AD293 cells assessed as induction of IP1 accumulation at 0.1 to 1 uM. The class given is functional, cell-based.
Series [3] shares this target. Put plainly: Agonist activity at human P2Y2 receptor expressed in AD293 cells assessed as inositol-1-phosphate accumulation at 100 uM. The class given is functional, cell-based.
The target of series [4] is T2, Ectonucleotide pyrophosphatase/phosphodiesterase family member 1 (Homo sapiens) (UniProt P22413).
T2 sequence (whole entry): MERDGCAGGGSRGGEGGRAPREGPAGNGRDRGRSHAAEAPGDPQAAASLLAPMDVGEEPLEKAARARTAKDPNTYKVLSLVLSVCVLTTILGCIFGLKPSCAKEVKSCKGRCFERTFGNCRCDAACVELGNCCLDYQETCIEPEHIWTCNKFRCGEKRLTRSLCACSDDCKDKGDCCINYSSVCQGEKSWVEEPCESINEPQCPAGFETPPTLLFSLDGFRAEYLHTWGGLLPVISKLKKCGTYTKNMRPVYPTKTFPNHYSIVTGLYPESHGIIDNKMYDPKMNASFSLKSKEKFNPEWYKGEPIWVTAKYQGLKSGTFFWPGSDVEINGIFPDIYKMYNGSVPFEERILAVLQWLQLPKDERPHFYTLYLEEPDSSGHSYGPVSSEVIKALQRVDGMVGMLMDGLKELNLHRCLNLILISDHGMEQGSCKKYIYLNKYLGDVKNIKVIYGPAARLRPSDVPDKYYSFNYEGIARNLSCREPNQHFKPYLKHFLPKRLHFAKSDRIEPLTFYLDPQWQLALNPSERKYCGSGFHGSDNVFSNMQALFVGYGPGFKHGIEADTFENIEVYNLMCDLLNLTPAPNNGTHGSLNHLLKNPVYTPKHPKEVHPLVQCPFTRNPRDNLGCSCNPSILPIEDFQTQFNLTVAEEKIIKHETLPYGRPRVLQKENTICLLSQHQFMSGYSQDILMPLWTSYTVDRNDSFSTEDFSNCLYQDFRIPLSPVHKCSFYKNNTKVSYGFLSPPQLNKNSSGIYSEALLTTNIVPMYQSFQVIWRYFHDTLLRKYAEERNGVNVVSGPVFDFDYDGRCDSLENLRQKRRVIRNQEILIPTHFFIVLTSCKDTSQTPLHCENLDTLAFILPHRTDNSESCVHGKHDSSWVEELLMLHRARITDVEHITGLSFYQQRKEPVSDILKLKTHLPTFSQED
Put plainly: Inhibition of human NPP1 expressed in COS7 cell membranes at 100 uM using pNP-TMP as substrate preincubated for 3 mins followed by substrate addition and measured after 15 mins relative to control.

For series [5], the target named is T2, Ectonucleotide pyrophosphatase/phosphodiesterase family member 1 (Homo sapiens). Put plainly: Inhibition of NPP-1 in human articular chondrocytes at 100 uM using p-Nph-5'-TMP as substrate after 3 hrs by […] relative to control. The class given is cell-based. (In an ELISA, binding on a coated surface is turned into a signal by an enzyme label.)
The next series is filed under the species Homo sapiens. The series is described as follows: Inhibition of alkaline phosphatase in human primary chondrocyte at 100 uM using p-nitrophenyl phosphate as substrate after 30 mins by […] relative to control.
A short description of series [6]: Cytotoxicity against human primary chondrocytes at 100 uM after 24 hrs by XTT assay. For orientation: Formazan colour is commonly taken as a measure of viable cells.
In series [7] the target is P2Y purinoceptor 6 (Homo sapiens) (UniProt Q15077). Put plainly: Agonist activity at human P2Y6 receptor expressed in AD293 cells assessed as inositol-1-phosphate accumulation at 100 uM. The class given is functional, cell-based.
Chain of P2Y purinoceptor 6 (Homo sapiens) (Q15077 whole entry): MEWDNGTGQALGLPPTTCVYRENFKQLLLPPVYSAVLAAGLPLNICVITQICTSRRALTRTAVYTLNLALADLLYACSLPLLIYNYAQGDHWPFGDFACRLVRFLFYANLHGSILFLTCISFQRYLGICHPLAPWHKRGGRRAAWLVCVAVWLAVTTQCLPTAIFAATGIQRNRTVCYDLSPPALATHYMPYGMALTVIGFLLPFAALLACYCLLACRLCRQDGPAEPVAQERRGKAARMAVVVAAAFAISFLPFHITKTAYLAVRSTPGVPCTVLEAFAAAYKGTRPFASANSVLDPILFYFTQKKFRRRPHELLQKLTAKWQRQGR
Series [8] has as its target T1, Ectonucleotide pyrophosphatase/phosphodiesterase family member 3 (Homo sapiens). The series is described as follows: Inhibition of human NPP3 expressed in COS7 cell membranes at 100 uM using pNP-TMP as substrate preincubated for 3 mins followed by substrate addition and measured after 15 mins relative to control.
Series [9] addresses T3, Ectonucleotide pyrophosphatase/phosphodiesterase family member 1 (Homo sapiens, UniProt P22413).
T3 sequence (P22413 whole entry): T2 sequence (whole entry)
The series is described as follows: Inhibition of human NPP1 expressed in COS7 cell membranes using pNP-TMP as substrate preincubated for 3 mins followed by substrate addition and measured after 15 mins by Dixon plot analysis.

In series [10] the target is T2, Ectonucleotide pyrophosphatase/phosphodiesterase family member 1 (Homo sapiens). Put plainly: Inhibition of human NPP1 expressed in COS7 cell membranes at 100 uM using pNP-TMP as substrate preincubated for 3 mins followed by substrate addition and measured after 15 mins.
The target of series [11] is P2Y purinoceptor 2 (Homo sapiens) (UniProt P41231). Put plainly: Partial agonist activity at human P2Y2 receptor expressed in AD293 cells assessed as inositol-1-phosphate accumulation at 100 uM. The class given is functional, cell-based.
Chain of P2Y purinoceptor 2 (Homo sapiens) (P41231 whole entry): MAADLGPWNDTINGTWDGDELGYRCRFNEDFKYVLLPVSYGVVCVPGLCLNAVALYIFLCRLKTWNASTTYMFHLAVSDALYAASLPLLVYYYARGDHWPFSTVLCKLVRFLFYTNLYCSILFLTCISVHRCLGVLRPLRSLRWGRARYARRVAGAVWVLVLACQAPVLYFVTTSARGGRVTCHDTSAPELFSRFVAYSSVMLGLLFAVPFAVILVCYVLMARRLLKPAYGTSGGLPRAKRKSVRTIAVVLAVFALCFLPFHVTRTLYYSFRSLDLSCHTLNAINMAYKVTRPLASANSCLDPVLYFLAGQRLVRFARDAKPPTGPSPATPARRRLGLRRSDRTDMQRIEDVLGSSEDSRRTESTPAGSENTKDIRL

For orientation: inhibition means the drop in the measured response relative to a control, in per cent. As a reminder, the Ki is a dissociation constant, usually derived from enzyme kinetics or from competition with a known ligand. Read a low Ki as higher affinity.

Activity calls are given as the source filed them. The calls are words filed in the database; no cut-off is given here.

With `O=c1ccn(COCCOP(=O)(O)C(Cl)(Cl)P(=O)(O)O)c(=O)[nH]1`, in [1], the inhibition entry was “Active”. In addition, the outcome in series [2] and in [3] was inactive. In [4], this compound showed an inhibition of 51%.

With `O=c1ccn(COCCOP(=S)(S)OP(=O)(O)C(Cl)(Cl)P(=O)(O)O)c(=O)[nH]1` (stereo unspecified), the inhibition was 96% in [5], less than 10% in the series listed under Homo sapiens, 21% in [8] and 96% in series [4]. The outcome in series [3] was inactive. Moreover, in series [6], the Activity result was “Non-Toxic”. For the same compound, the outcome in series [7] was Active. The compound also gave a Ki in series [9] of 730 nM.

Turning to `O=c1ccn(COCCOP(=S)(S)OP(=O)(O)CP(=O)(O)O)c(=O)[nH]1` (stereo unspecified), the result in series [3] was inactive. Moreover, the inhibition was less than 10% in the series filed under Homo sapiens, 24% in [8] and 96% in series [4]. For the same compound, the Activity result in [6] is listed as “Non-Toxic”. For the same compound, the outcome in [7] was Active. Also, the Ki in series [9] was 940 nM.

Take `O=c1ccn(COCCO[PH](=O)O)c(=O)[nH]1`: the inhibition entry in [1] and in series [10] was “inactive” each time. Further, the result in series [2] and in series [3] was inactive.

As to `O=c1ccn(COCCOP(=O)(O)CP(=O)(O)O)c(=O)[nH]1`, the inhibition entry in series [1] was “Active”. In series [2], the outcome was inactive. Also, the result in series [11] and in series [7] was Active. In series [4], this compound had an inhibition of 54%.

Regarding `O=c1ccn(COCCOP(=O)(O)O)c(=O)[nH]1`, the inhibition entry in series [1] and in series [10] was “inactive” in each case. For the same compound, the result in series [3] was inactive.

The record behind these values is ChEMBL document CHEMBL4311993, “Structure-activity relationship study of NPP1 inhibitors based on uracil-N1-(methoxy)ethyl-β-phosphate scaffold” (Eur J Med Chem, 2019).
